From paper PMC4335020, “Single Oral Dose Pharmacokinetics of Decursin and Decursinol Angelate in Healthy Adult Men and Women” (PLoS ONE, 2015)
Where two headings read alike, the source gives them in different places.

Assay: Single oral dose human plasma pharmacokinetics of D, DA and DOH after Cogni.Q
Assay type: in vivo
Conditions: for Cmax / Tmax / half-life / AUC(0-t): plasma
Text: Ten healthy male and 10 female subjects were recruited by public announcement in Amarillo, TX, from January 2013 to April 2013 (see Fig. 1 CONSORT diagram). The sample size for each gender was chosen without power calculation due to the lack of prior knowledge of PK parameter variance in humans. After receiving informed consent verbally and in writing, the health status of each candidate was confirmed by health questionnaire, plasma biochemistry (hepatic and renal functions), complete blood cell count (CBC), and a physical examination by a participating academic physician. Subjects with diabetes, or pregnant, perinatal and breastfeeding women were excluded. For the 48 hours preceding study visit until the final blood draw, all subjects were instructed to avoid taking any prescription or nonprescription drugs, vitamins, and herbal/dietary supplements. Each subject was compensated for participating in the study per TTUHSC IRB approved rate.
Eligible subjects arrived at our clinical facility at 0700 (7:00 am) on the test day after a fast beginning at 2200 (10:00 pm) the previous night. After a brief review of vital signs, the nurse placed an intravenous (IV) line with saline drip in one arm of each subject. A baseline pre-dose (hour 0) blood sample was drawn through the IV line; after that subjects swallowed four Cogni.Q vegicaps with 240 mL of water at hour 0 under direct supervision. Subjects stayed at the clinical facility in their room for the next 12 hours, returning at 24 and 48 hours. Blood was drawn at baseline (hour 0) and at 0.5, 1, 2, 3, 4, 6, 8, 12, 24 and 48 hours after dosing into Vacutainer Blood Collection Tube (Becton-Dickinson, Franklin Lakes, NJ. Product Number: 367874, Sodium heparin was used as anti-coagulant). Water was allowed as desired except for within the first hour after Cogni.Q consumption. All subjects received standardized meals at post-dose hours 4.5 and 9.5 but no food was allowed for at least the first 4 hours post-dose.
Plasma was prepared by centrifuging the heparinized blood at 1000 g for 15 minutes at room temperature. Urine samples (40mL) were collected within time spans of 0–4, 4–8, 8–12 and 12–24 hours (total volume of urine was recorded). All plasma and urine samples were put on dry ice immediately and then stored at -80°C freezer until analysis.
Plasma samples were extracted with a validated solid supported liquid extraction (SLE) method facilitated with a positive pressure manifold (Biotage, Charlotte, NC). Briefly, 100 μL of plasma sample was spiked with 5 μL of 10 ng/μL prednisolone (IS), diluted with 200 μL of LC-MS grade water, mixed and loaded onto ISOLUTE SLE+ 400 μL Array Well cartridges (Biotage, Charlotte, NC). A pulse of minimum positive pressure was applied to facilitate the samples absorption into the cartridges. After the samples were allowed to absorb for 5 min, the compounds were eluted with 2×500 μL tert-butyl methyl ether. The eluent was dried in a Speedvac and the resulting residue was reconstituted in 50 μL of methanol for UHPLC-MS/MS analysis.
Eight-point calibration curves were constructed for D, DA and DOH, at concentrations of 0.1, 0.5, 1, 5, 10, 20, 50 and 100 μg/L for D and DA, and at concentrations of 1, 5, 10, 50, 100, 200, 500 and 1000 μg/L for DOH, respectively. The linear range was 0.1–100 μg/L (0.3–300 nmol/L), 0.1–100 μg/L (0.3–300 nmol/L) and 1–1000 μg/L (4–4000 nmol/L) for D, DA and DOH, respectively. The inter- and intra-assay CV were lower than 6.5% and the accuracy was between 90–105%. Calibration curve was run for each batch of samples analyzed. The mean calibration curve correlation coefficient (r) for D, DA and DOH was 0.999, 0.999 and 0.998, respectively (data from 7–10 calibration curves). In addition, 70% of the plasma samples were extracted and analyzed twice, the data from two replicate analyses were nearly identical and combined for final data analyses and presentation. […]

- Cmax (all human subjects n = 20, single oral dose 4 Cogni.Q vegicaps (119 mg D, 77 mg DA), read-out: Cmax, nmol/L Mean (SD)): 48.1 nmol/L
- variation in C max and AUC0–48h among individual subjects (all subjects): ≤ 60 fold
- Cmax (both sexes, human, oral, 4 Cogni.Q vegicaps, n=20 (S1 Table), read-out: Cmax, nM, Grand Mean): 48.1 nmol/L
- Tmax (both sexes, human, oral, 4 Cogni.Q vegicaps, n=20 (S1 Table), read-out: Tmax, h, Grand Mean): 2.4 h
- half-life (both sexes, human, oral, all subjects, outliers excluded (S1 Table), read-out: Terminal t1/2, h, Grand Mean (converted)): 19.3 h
- AUC(0-t) (both sexes, human, oral, n=20 (S1 Table), read-out: AUC0-48h, Grand Mean): 335 nmol·h/L
- Cmax (both sexes, human, po, all human subjects n = 20, single oral dose 4 Cogni.Q vegicaps (119 mg D, 77 mg DA), read-out: Cmax, nmol/L Mean (SD)): 48 nmol/L
- Tmax (both sexes, human, po, all human subjects n = 20, single oral dose 4 Cogni.Q vegicaps (119 mg D, 77 mg DA), read-out: Tmax, h, Mean (SD)): 2.4 h
- AUC(0-t) (both sexes, human, po, all human subjects n = 20, single oral dose Cogni.Q, plasma (Table 2), read-out: AUC0–48h, nmol/L, Mean (SD)): 335 nmol·h/L
- half-life (both sexes, human, po, all human subjects, four outlier subjects excluded, single oral dose Cogni.Q, read-out: Terminal t1/2, h, Mean (SD) (converted)): 19.3 h
- AUC(0-t) (both sexes, human, po, twenty healthy subjects, single oral dose Cogni.Q, plasma (abstract), read-out: mean area under the curve (AUC0-48h)): 335 nmol·h/L
- AUC(0-t) (female, human, oral, 4 Cogni.Q vegicaps, Women n=10 (S1 Table), read-out: AUC0-48h, Mean, F): 344 nmol·h/L
- Cmax (female, human, oral, 4 Cogni.Q vegicaps, Women n=10 (S1 Table), read-out: Cmax, nM, Mean, F): 43.9 nmol/L
- Tmax (female, human, oral, Women n=10 (S1 Table), read-out: Tmax, h, Mean, F): 2.7 h
- half-life (female, human, oral, Women, outliers excluded (S1 Table), read-out: Terminal t1/2, h, Mean, F (converted)): 23.7 h
- AUC(0-t) (female, human, po, Women N = 10, single oral dose Cogni.Q, read-out: AUC0–48h, h.nmol/L Mean (SD)): 344 nmol·h/L
- Cmax (female, human, po, Women N = 10, single oral dose Cogni.Q, read-out: Cmax, nmol/L, Mean (SD)): 43.9 nmol/L
- Tmax (female, human, po, Women N = 10, single oral dose Cogni.Q, read-out: Tmax, h, Mean (SD)): 2.7 h
- half-life (female, human, po, Women, outlier subjects excluded, single oral dose Cogni.Q, read-out: T1/2, h, terminal Mean (SD) (converted)): 23.7 h
- half-life (human, oral, 4 Cogni.Q vegicaps, subject S1 (115 lb), outlier, excluded from means, read-out: Terminal t1/2, h (converted)): 20.2 h
- AUC(0-t) (human, oral, 4 Cogni.Q vegicaps, subject S1 (115 lb), read-out: AUC0-48h): 190 nmol·h/L
- Cmax (human, oral, 4 Cogni.Q vegicaps, subject S1 (115 lb), read-out: Cmax): 23.4 nmol/L
- Tmax (human, oral, 4 Cogni.Q vegicaps, subject S1 (115 lb), read-out: Tmax): 2 h
- AUC(0-t) (human, oral, 4 Cogni.Q vegicaps, subject S2 (194 lb), read-out: AUC0-48h): 97.5 nmol·h/L
- Cmax (human, oral, 4 Cogni.Q vegicaps, subject S2 (194 lb), read-out: Cmax): 13.4 nmol/L
- half-life (human, oral, 4 Cogni.Q vegicaps, subject S2 (194 lb), read-out: Terminal t1/2, h (converted)): 38.6 h
- Tmax (human, oral, 4 Cogni.Q vegicaps, subject S2 (194 lb), read-out: Tmax): 3 h
- half-life (human, oral, 4 Cogni.Q vegicaps, subject S3 (170 lb), outlier, excluded from means, read-out: Terminal t1/2, h (converted)): 31.4 h
- AUC(0-t) (human, oral, 4 Cogni.Q vegicaps, subject S3 (170 lb), read-out: AUC0-48h): 142 nmol·h/L
- Cmax (human, oral, 4 Cogni.Q vegicaps, subject S3 (170 lb), read-out: Cmax): 27.2 nmol/L
- Tmax (human, oral, 4 Cogni.Q vegicaps, subject S3 (170 lb), read-out: Tmax): 6 h
- AUC(0-t) (human, oral, 4 Cogni.Q vegicaps, subject S4 (170 lb), read-out: AUC0-48h): 1060 nmol·h/L
- Cmax (human, oral, 4 Cogni.Q vegicaps, subject S4 (170 lb), read-out: Cmax): 100 nmol/L
- half-life (human, oral, 4 Cogni.Q vegicaps, subject S4 (170 lb), read-out: Terminal t1/2, h (converted)): 17.7 h
- Tmax (human, oral, 4 Cogni.Q vegicaps, subject S4 (170 lb), read-out: Tmax): 2 h
- AUC(0-t) (human, oral, 4 Cogni.Q vegicaps, subject S5 (161 lb), read-out: AUC0-48h): 294 nmol·h/L
- Cmax (human, oral, 4 Cogni.Q vegicaps, subject S5 (161 lb), read-out: Cmax): 21.4 nmol/L
- half-life (human, oral, 4 Cogni.Q vegicaps, subject S5 (161 lb), read-out: Terminal t1/2, h (converted)): 12 h
- Tmax (human, oral, 4 Cogni.Q vegicaps, subject S5 (161 lb), read-out: Tmax): 1 h
- AUC(0-t) (human, oral, 4 Cogni.Q vegicaps, subject S6 (120 lb), read-out: AUC0-48h): 696 nmol·h/L
- Cmax (human, oral, 4 Cogni.Q vegicaps, subject S6 (120 lb), read-out: Cmax): 84.3 nmol/L
- half-life (human, oral, 4 Cogni.Q vegicaps, subject S6 (120 lb), read-out: Terminal t1/2, h (converted)): 16.2 h
- Tmax (human, oral, 4 Cogni.Q vegicaps, subject S6 (120 lb), read-out: Tmax): 3 h
- AUC(0-t) (human, oral, 4 Cogni.Q vegicaps, subject S7 (180 lb), read-out: AUC0-48h): 432 nmol·h/L
- Cmax (human, oral, 4 Cogni.Q vegicaps, subject S7 (180 lb), read-out: Cmax): 74.3 nmol/L
- half-life (human, oral, 4 Cogni.Q vegicaps, subject S7 (180 lb), read-out: Terminal t1/2, h (converted)): 17.4 h
- Tmax (human, oral, 4 Cogni.Q vegicaps, subject S7 (180 lb), read-out: Tmax): 4 h
- AUC(0-t) (human, oral, 4 Cogni.Q vegicaps, subject S8 (160 lb), read-out: AUC0-48h): 1600 nmol·h/L
- Cmax (human, oral, 4 Cogni.Q vegicaps, subject S8 (160 lb), read-out: Cmax): 183 nmol/L
- half-life (human, oral, 4 Cogni.Q vegicaps, subject S8 (160 lb), read-out: Terminal t1/2, h (converted)): 16.7 h
- Tmax (human, oral, 4 Cogni.Q vegicaps, subject S8 (160 lb), read-out: Tmax): 3 h
- AUC(0-t) (human, oral, 4 Cogni.Q vegicaps, subject S9 (158 lb), read-out: AUC0-48h): 80.8 nmol·h/L
- Cmax (human, oral, 4 Cogni.Q vegicaps, subject S9 (158 lb), read-out: Cmax): 13.6 nmol/L
- half-life (human, oral, 4 Cogni.Q vegicaps, subject S9 (158 lb), read-out: Terminal t1/2, h (converted)): 19.1 h
Compound: C/C=C(/C)C(=O)O[C@H]1Cc2cc3ccc(=O)oc3cc2OC1(C)C [DA, decursinol angelate]
